According to patent publication US20260232682A1, “GSPT1 DEGRADER COMPOUNDS” (Captor Therapeutics S.A., priority 2023, published 2026):

Experiments:
[1] = biological target: T1, [SALL4 ZF2]-[compound]-[CRBN/DDB1] ternary complex (Homo sapiens, UniProt Q96SW2+Q9UJQ4); assay: AlphaLISA assay for off-target recruitment detection, SALL4 ZF2; assay type: binding; settings: 1 μM compound, normalized to Lenalidomide; for activation at 1 µM: read-out: Normalized ternary complex response, SALL4 ZF2
T1 construct: SALL4 ZF2
Method: (§1) The ability of the molecular glue compounds of the invention to mediate the proximity of CRBN with its known neo-substrates (shown in Table 3) was assessed using AlphaLISA to detect the formation of a [neo-substrate]-[compound of formula (I)]-[CRBN/DDB1] ternary complex.
(§2) Two types of protein solution were prepared: • neo-substrate, 40 μg/ml AlphaScreen Donor Beads (Table 3) in PBS (10 mM phosphate buffer, 137 mM NaCL, 2.7 mM KCl, pH 7.4) buffer supplemented with Tween-20 (Table 3) and 1 mM DTT, • 200 nM 6×His-CRBN/DDB1, 40 μg/ml AlphaLISA Anti-6×His Acceptor beads in PBS buffer with Tween-20 (Table 3) and 1 mM DTT.
(§3) The prepared solutions were incubated at room temperature for 30 min and then the solution containing the donor beads was mixed with the solution containing the acceptor beads.
(§4) The tested compounds were dispensed onto a white 384-well AlphaPlate 384 SW. DMSO was backfilled to all wells, resulting in a final DMSO content of 2%. Wells containing only DMSO served as background. Next, 10 μl of solution with donor and acceptor beads was added to the wells.
(§5) The plate was sealed with transparent film and shaken using a VibroTurbulator for 60 sec at room temperature, level 3. The plate was then spun down shortly (10 sec, 1000 rcf, room temperature) and incubated at 25° C. for 30 min.
(§6) The read-out was performed with PerkinElmer Enspire Multimode Plate Reader (method for AlphaLISA 384-well low volume, Filterset: λexc=680 nm, λem=615 nm).
(§7) The results were analyzed as follows: • 1) an average of luminescence for background signal was calculated and used as a negative control; • 2) an average of the maximum measured luminescence for reference compound (Table 3) was calculated and used as an internal positive control; • 3) raw luminescence values were normalized against positive and negative controls; • 4) Normalized responses to reference molecular glue were determined.

[2] = biological target: T2, [IKZF1 ZF2]-[compound]-[CRBN/DDB1] ternary complex (Homo sapiens, UniProt Q13422+Q96SW2); assay: AlphaLISA assay for off-target recruitment detection, IKZF1 ZF2; assay type: binding; settings: 1 μM compound, normalized to Lenalidomide; for activation at 1 µM: read-out: Normalized ternary complex response, IKZF1 ZF2
T2 construct: IKZF1 ZF2
Method: as §1, §2, §3, §4, §5, §6, §7

[3] = biological target: T3, [GSPT1]-[compound of formula (I)]-[CRBN/DDB1] complex (Homo sapiens, UniProt P15170+Q96SW2); assay: HTRF ternary complex assay (GSPT1); assay type: binding; settings: read-out: HTRF ternary complex Average pEC50 by molecule (converted)
Method: The effect of the molecular glue compounds of the invention on the formation of a ternary complex composed of [GSPT1]-[compound of formula (I)]-[CRBN/DDB1] was investigated.
Mix solution of proteins and reagents was prepared: • 48 nM GSPT1, 52.8 nM 6×His-CRBN/DDB1, 3 nM of Streptavidin-Eu cryptate ([…]) and 6.67 nM of Anti-6×his-d2 ([…]) was prepared in PPI Europium detection buffer (purchased from Cisbio) with 1 mM DTT.
The tested compounds in dose-response were dispensed onto a white 384-well low volume plate (Greiner, 784075). DMSO was backfilled to all wells, resulting in a final DMSO content of 0.5%. Wells containing only DMSO served as background.
The plate was sealed with transparent film and shaken using a VibroTurbulator for 60 sec at level 3.
The plate was then spun down shortly (10 sec, 1000 rcf) and incubated at 25° C. for 180 min.
The read-out was performed with plate reader (Pherastar, BMG Labtech) in time resolved fluorescence mode. Filter settings: TR 337 665 620.
The results were analyzed as follows: • 1) an average of fluorescence for background signal was calculated and used as a negative control; • 2) raw fluorescence values for tested compounds were normalized against negative controls; • 3) saturation curve was fitted to specific binding with Hill slope model; • 4) EC50 and pEC50 values were determined.

[4] = biological target: CRBN/DDB1 protein complex (Homo sapiens, UniProt Q96SW2); assay: CRBN displacement TR-FRET assay; settings: Thalidomide-Red tracer, 6×His-CRBN/DDB1; read-out: CRBN binding Ki
Method: CRBN/DDB1 protein complex was mixed with Thalidomide-Red and a compound to be tested (the “test compound”). The test solution contained PPI Europium detection buffer, 1 mM DTT, 6.8 nM Thalidomide-Red (the tracer), 5 nM 6×His-CRBN/DDB1 protein, 0.5 nM Anti-6× His-Eu cryptate, 1% DMSO. The test solution was added to a 384-well assay plate.
The plate was spun-down (1 min, 1000 rpm, 22° C.) and then shaken using a VibroTurbulator for 30 sec at room temperature (20-25° C.), with the frequency set to level 10. The assay plate with protein and the tracer was incubated for 180 min at room temperature (20-25° C.) prior to read-out with a plate reader. The read-out was performed with plate reader (Pherastar, BMG Labtech) in time resolved fluorescence mode. Filter settings: TR 337 665 620.
The CRBN displacement TR-FRET experiment was carried out with various concentrations of the test compounds in order to measure Ki values.
The Ki values of competitive inhibitors were calculated using the equation based on the IC50 values of relationship between compound concentration and measured […], the Kd value of the Thalidomide-Red and CRBN/DDB1 complex, and the concentrations of the protein and the tracer in the displacement assay (as described by Cheng and Prusoff, Biochem Pharmacol 1973; 22:3099-3108).

[5] = biological target: [CK1α]-[compound]-[CRBN/DDB1] ternary complex (Homo sapiens, UniProt P48729+Q96SW2); assay: AlphaLISA assay for off-target recruitment detection, CK1α; assay type: binding; settings: 1 μM compound, normalized to FPFT-2216; for activation at 1 µM: read-out: Normalized ternary complex response, CK1α
Method: as §1, §2, §3, §4, §5, §6, §7

[6] = biological target: T4, [IKZF2 ZF2]-[compound]-[CRBN/DDB1] ternary complex (Homo sapiens, UniProt Q96SW2+Q9UKS7); assay: AlphaLISA assay for off-target recruitment detection, IKZF2 ZF2; assay type: binding; settings: 1 μM compound, normalized to Helios modulator; for activation at 1 µM: read-out: Normalized ternary complex response, IKZF2 ZF2
T4 construct: IKZF2 ZF2
Method: as §1, §2, §3, §4, §5, §6, §7

[7] = biological target: T3, [GSPT1]-[compound of formula (I)]-[CRBN/DDB1] complex; assay: AlphaLISA ternary complex formation assay (GSPT1); assay type: binding; settings: 0.5 h; 1 μM compound; normalized to reference compound CC-885; read-out: Normalized AlphaLISA ternary complex average signal at 1 μM molecule
Method: The effect of the molecular glue compounds of the invention on the formation of a ternary complex composed of [GSPT1]-[compound of formula (I)]-[CRBN/DDB1] was investigated with two methods: AlphaLISA dose response assay or HTRF ternary complex assay.
Two types of protein solution were prepared: • 200 nM biotinylated GSPT1 (Table 3), 40 μg/ml AlphaScreen Streptavidin-coated Donor Beads in HBS (10 mM HEPES, 150 mM NaCL, pH 7.4) buffer with 0.1% Tween-20 and 1 mM DTT, • 200 nM 6×His-CRBN/DDB1, 40 μg/ml AlphaLISA Anti-6×His Acceptor beads in HBS buffer with 0.1% Tween-20 and 1 mM DTT.
as §3, §4, §5, §6
as §7, with “2)” for “2) an”, “(structure shown in Table 3 below)” for “(Table 3)”, “positive control” for “reference molecular glue”

T2 sequence (Q13422 145-167 limits assumed): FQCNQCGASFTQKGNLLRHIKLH
T2 sequence (Q96SW2 whole entry): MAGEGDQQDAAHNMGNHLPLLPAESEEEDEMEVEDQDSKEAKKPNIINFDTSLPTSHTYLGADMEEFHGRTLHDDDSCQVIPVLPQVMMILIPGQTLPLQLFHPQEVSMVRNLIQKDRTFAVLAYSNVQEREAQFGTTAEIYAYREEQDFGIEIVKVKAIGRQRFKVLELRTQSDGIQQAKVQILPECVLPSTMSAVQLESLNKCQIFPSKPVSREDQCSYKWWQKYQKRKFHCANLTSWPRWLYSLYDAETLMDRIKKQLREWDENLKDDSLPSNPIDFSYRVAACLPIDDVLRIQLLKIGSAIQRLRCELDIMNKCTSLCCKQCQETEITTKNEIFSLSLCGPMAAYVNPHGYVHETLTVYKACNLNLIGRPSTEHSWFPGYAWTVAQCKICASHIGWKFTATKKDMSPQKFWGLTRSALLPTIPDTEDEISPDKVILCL
T2 sequence (Q16531 whole entry partner): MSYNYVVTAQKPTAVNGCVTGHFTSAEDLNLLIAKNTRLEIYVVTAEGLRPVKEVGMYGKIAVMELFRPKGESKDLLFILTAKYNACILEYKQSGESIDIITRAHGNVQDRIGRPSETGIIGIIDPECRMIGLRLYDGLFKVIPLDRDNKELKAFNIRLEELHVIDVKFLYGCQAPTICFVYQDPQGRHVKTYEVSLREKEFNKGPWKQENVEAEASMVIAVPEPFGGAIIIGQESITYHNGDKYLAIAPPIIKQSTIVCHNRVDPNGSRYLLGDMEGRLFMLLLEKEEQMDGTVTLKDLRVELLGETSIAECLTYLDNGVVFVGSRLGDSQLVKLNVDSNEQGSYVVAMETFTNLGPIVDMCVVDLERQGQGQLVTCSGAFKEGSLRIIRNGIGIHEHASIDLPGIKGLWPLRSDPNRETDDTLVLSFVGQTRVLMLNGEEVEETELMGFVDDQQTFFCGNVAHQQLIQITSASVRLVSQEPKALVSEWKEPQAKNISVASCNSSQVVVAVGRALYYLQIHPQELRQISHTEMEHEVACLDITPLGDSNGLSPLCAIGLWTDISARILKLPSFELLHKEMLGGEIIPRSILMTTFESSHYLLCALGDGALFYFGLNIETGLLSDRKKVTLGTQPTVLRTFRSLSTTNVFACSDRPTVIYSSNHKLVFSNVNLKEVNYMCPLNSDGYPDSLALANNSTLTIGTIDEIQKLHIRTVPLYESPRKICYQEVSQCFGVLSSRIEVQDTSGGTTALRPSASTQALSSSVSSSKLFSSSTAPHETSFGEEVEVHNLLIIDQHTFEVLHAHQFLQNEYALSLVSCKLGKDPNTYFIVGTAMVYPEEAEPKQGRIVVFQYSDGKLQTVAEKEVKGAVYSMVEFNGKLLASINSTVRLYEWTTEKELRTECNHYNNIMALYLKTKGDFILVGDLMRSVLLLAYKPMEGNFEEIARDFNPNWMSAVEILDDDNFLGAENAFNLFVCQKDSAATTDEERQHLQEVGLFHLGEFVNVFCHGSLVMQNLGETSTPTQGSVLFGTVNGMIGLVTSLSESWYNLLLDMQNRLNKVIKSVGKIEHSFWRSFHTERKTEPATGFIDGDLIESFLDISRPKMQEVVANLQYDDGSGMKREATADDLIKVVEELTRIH
Sequence of [CK1α]-[compound]-[CRBN/DDB1] ternary complex (P48729 whole entry): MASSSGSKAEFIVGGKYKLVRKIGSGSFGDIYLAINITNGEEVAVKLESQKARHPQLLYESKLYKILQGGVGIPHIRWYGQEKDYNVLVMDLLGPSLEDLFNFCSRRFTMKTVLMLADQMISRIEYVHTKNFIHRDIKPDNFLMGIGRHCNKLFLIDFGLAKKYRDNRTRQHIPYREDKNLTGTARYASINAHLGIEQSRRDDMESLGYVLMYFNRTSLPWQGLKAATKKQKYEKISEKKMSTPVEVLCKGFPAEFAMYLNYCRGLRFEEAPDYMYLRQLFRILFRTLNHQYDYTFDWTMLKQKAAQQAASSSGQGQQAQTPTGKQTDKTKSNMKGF
Sequence of [CK1α]-[compound]-[CRBN/DDB1] ternary complex (Q96SW2 whole entry): as the sequence (Q96SW2 whole entry) above
Sequence of [CK1α]-[compound]-[CRBN/DDB1] ternary complex (Q16531 whole entry partner): as the sequence (Q16531 whole entry partner) above
T4 sequence (Q9UKS7 140-162 limits assumed): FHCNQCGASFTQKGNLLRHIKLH
T4 sequence (Q96SW2 whole entry): as the sequence (Q96SW2 whole entry) above
T4 sequence (Q16531 whole entry partner): as the sequence (Q16531 whole entry partner) above
T1 sequence (Q9UJQ4 410-432 limits assumed): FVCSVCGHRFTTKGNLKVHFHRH
T1 sequence (Q96SW2 whole entry): as the sequence (Q96SW2 whole entry) above
T1 sequence (Q16531 whole entry partner): as the sequence (Q16531 whole entry partner) above
T3 sequence (P15170 whole entry): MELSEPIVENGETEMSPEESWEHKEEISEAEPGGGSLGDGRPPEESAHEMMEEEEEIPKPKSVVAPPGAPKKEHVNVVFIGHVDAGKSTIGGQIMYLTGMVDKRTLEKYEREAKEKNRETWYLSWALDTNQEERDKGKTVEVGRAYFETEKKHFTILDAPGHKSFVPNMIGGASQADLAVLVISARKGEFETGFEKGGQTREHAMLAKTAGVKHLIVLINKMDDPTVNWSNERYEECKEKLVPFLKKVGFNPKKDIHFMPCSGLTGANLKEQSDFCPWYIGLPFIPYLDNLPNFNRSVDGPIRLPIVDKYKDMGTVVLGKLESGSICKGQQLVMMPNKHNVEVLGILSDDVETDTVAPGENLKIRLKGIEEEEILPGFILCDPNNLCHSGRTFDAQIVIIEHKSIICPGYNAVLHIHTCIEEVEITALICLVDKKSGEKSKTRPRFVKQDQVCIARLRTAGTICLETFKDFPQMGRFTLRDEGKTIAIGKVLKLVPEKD
T3 sequence (Q96SW2 whole entry): as the sequence (Q96SW2 whole entry) above
T3 sequence (Q16531 whole entry partner): as the sequence (Q16531 whole entry partner) above
Sequence of CRBN/DDB1 protein complex (Q96SW2 whole entry, species assumed): as the sequence (Q96SW2 whole entry) above
Sequence of CRBN/DDB1 protein complex (Q16531 whole entry partner, species assumed): as the sequence (Q16531 whole entry partner) above

| Structure (SMILES) | activation at 1 µM [1] [%] | activation at 1 µM [2] [%] | EC50 [3] [nM] | Ki [4] [nM] | activation at 1 µM [5] [%] | activation at 1 µM [6] [%] | activation at 1 µM [7] [%] | Normalized ternary complex response, SALL4 ZF2 [1] | Normalized ternary complex response, IKZF1 ZF2 [2] | Normalized ternary complex response, CK1α [5] | Normalized ternary complex response, IKZF2 ZF2 [6] |
| --- | --- | --- | --- | --- | --- | --- | --- | --- | --- | --- | --- |
| Cc1ccc(NC(=O)C(C)Oc2ccc3cc(C4CCC(=O)NC4=O)c(C)nc3c2)cc1Cl (centres unmarked) [Compound 34, N-(3-chloro-4-methylphenyl)-2-((3-(2,6-dioxopiperidin-3-yl)-2-methylquinolin-7-yl)oxy)propenamide] | < 10 | < 10 | > 3160 | 500 to 1000 | < 10 | < 10 | < 10 |  |  |  |  |
| Cc1nc2cc(OC(C)C(=O)NC3CCCCC3)ccc2cc1C1CCC(=O)NC1=O (centres unmarked) [Compound 36, N-cyclohexyl-2-((3-(2,6-dioxopiperidin-3-yl)-2-methylquinolin-7-yl)oxy)propenamide] | < 10 | < 10 | > 3160 | < 500 | < 10 | < 10 | < 10 |  |  |  |  |
| Cc1nc2ccc(COC(=O)NC3CCCCC3)cc2cc1N1CCC(=O)NC1=O [Compound 60, (3-(2,4-dioxotetrahydropyrimidin-1(2H)-yl)-2-methylquinolin-6-yl)methyl cyclohexylcarbamate] | ≥ 50 | 10 to 25 | 316 to 3160 | 500 to 1000 | < 10 | < 10 | 10 to 50 |  |  |  |  |
| Cc1nc2ccc(CNC(=O)C(=O)c3ccc(C(C)(C)C)cc3)cc2cc1C1CCC(=O)NC1=O (centres unmarked) [Compound 1, 2-(4-(tert-butyl)phenyl)-N-((3-(2,6-dioxopiperidin-3-yl)-2-methylquinolin-6-yl)methyl)-2-oxoacetamide] | ≥ 50 | 25 to 50 | < 316 | < 500 | < 10 | 10 to 25 | > 50 |  |  |  |  |
| Cc1ccc(-c2nnc(NCc3ccc4cc(C5CCC(=O)NC5=O)c(C)nc4c3)o2)cc1Cl (centres unmarked) [Compound 13, 3-(7-(((5-(3-chloro-4-methylphenyl)-1,3,4-oxadiazol-2-yl)amino)methyl)-2-methylquinolin-3-yl)piperidine-2,6-dione] | < 10 | < 10 | > 3160 | < 500 | < 10 | < 10 | 10 to 50 |  |  |  |  |
| Cc1ccc(NC(=O)NCc2ccc3c(c2)CN(C2CCC(=O)NC2=O)C3=O)cc1Cl (centres unmarked) [CC-885, reference compound] |  |  |  |  |  |  |  | A (A≥50%) | A (A≥50%) | C (10%≤C<25%) | A (A≥50%) |
| Cc1nc2ccc(CNC(=O)NC3CCCCC3)cc2cc1N1CCC(=O)NC1=O [Compound 52, 1-cyclohexyl-3-((3-(2,4-dioxotetrahydropyrimidin-1(2H)-yl)-2-methylquinolin-6-yl)methyl)urea] | ≥ 50 | 25 to 50 | 316 to 3160 | > 1000 | < 10 | 10 to 25 | 10 to 50 |  |  |  |  |

Further lines, results first:

| activation at 1 µM [1] [%] | activation at 1 µM [2] [%] | EC50 [3] [nM] | Ki [4] [nM] | activation at 1 µM [5] [%] | activation at 1 µM [6] [%] | activation at 1 µM [7] [%] | Normalized ternary complex response, SALL4 ZF2 [1] | Normalized ternary complex response, IKZF1 ZF2 [2] | Normalized ternary complex response, CK1α [5] | Normalized ternary complex response, IKZF2 ZF2 [6] | Structure (SMILES) |
| --- | --- | --- | --- | --- | --- | --- | --- | --- | --- | --- | --- |
| 25 to 50 | < 10 | > 3160 | < 500 | < 10 | < 10 | 10 to 50 |  |  |  |  | Cc1nc2ccc(CNC(=O)C(=O)N3CCC(C(C)(C)C)CC3)cc2cc1C1CCC(=O)NC1=O (centres unmarked) [Compound 23, 2-(4-(tert-butyl)piperidin-1-yl)-N-((3-(2,6-dioxopiperidin-3-yl)-2-methylquinolin-6-yl)methyl)-2-oxoacetamide] |
| < 10 | < 10 | > 3160 | < 500 | < 10 | < 10 | 10 to 50 |  |  |  |  | Cc1nc2cc(COC(=O)NC3CCN(c4ccccc4)CC3)ccc2cc1C1CCC(=O)NC1=O (centres unmarked) [Compound 47, (3-(2,6-dioxopiperidin-3-yl)-2-methylquinolin-7-yl)methyl (1-phenylpiperidin-4-yl)carbamate] |
| 25 to 50 | < 10 | 316 to 3160 | 500 to 1000 | < 10 | < 10 | 10 to 50 |  |  |  |  | Cc1ccc(NCC(=O)NCc2ccc3nc(C)c(C4CCC(=O)NC4=O)cc3c2)cc1Cl (centres unmarked) [Compound 26, 2-((3-chloro-4-methylphenyl)amino)-N-((3-(2,6-dioxopiperidin-3-yl)-2-methylquinolin-6-yl)methyl)acetamide] |
| < 10 | < 10 | > 3160 | > 1000 | < 10 | < 10 | < 10 |  |  |  |  | Cc1ccc(NC(=O)OCc2cc3nc(C)c(C4CCC(=O)NC4=O)cc3cc2C)cc1Cl (centres unmarked) [Compound 68, (3-(2,6-dioxopiperidin-3-yl)-2,6-dimethylquinolin-7-yl)methyl (3-chloro-4-methylphenyl)carbamate] |
